Measured values: US8455475B2 (Gruenenthal GmbH, priority 2009, dated 2013)

Target: T1, rat B1R (bradykinin receptor 1) (Rattus norvegicus, UniProt P97583)
T1 construct: expressed in transfected cells; host or cells: CHO K1 cells
T1 sequence (P97583 1-337): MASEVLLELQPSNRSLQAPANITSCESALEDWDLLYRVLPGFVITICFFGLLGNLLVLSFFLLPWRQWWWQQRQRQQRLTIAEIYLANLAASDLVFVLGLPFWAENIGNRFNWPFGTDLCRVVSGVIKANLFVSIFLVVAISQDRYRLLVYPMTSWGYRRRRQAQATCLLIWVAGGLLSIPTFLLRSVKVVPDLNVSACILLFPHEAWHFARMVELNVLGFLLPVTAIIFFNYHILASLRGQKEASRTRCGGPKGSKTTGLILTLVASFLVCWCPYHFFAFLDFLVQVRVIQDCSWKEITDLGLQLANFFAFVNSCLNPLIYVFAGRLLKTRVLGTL
Assay: FLIPR Ca2+ assay (Fluo-4) on CHO K1 cells stably transfected with the B1R gene of the rat (rB1R cells): % inhibition at 10 μM / IC50, agonist Des-Arg9-bradykinin
Format: cell-based
Settings: CHO-K1, rat B1R
Summary of the method: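 Cells were Fluo-4-loaded, then test compound (10 μM, or a concentration series for IC50) was preincubated 10–20 min before agonist challenge at EC80: Lys-Des-Arg9-bradykinin for hB1R, Des-Arg9-bradykinin for rB1R. Peak Ca2+ fluorescence (ex 488/em 540 nm) gave % inhibition versus maximal achievable inhibition.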

| Compound | inhibition at 10 µM |
| --- | --- |
| CC(C)C(=O)NC1CCc2ccc(C(=O)N3CCC4(CCN(c5ccncc5)CC4)C3)cc21 (centres unmarked) [IND_CC-419, 2-Methyl-N-[6-(8-pyridin-4-yl-2,8-diazaspiro[4.5]decane-2-carbonyl)-2,3-dihydro-1H-inden-1-yl]-propionamide] | 101% |
| COc1cccc(F)c1CN1CCC2(CC1)CCN(C(=O)c1ccc3c(c1)C(NC(=O)c1cc(C(F)(F)F)ccc1Cl)CC3)C2 (centres unmarked) [IND_CC-637, 2-Chloro-N-[6-[8-[(2-fluoro-6-methoxy-phenyl)-methyl]-2,8-diazaspiro[4.5]-decane-2-carbonyl]-2,3-dihydro-1H-inden-1-yl]-5-(trifluoromethyl)-benzamide] | 69% |
| CC1(C)Cc2ccc(C(=O)N3CCC4(CC3)CCN(c3ccncc3)CC4)cc2C1NC(=O)c1cc(Cl)ccc1C(F)(F)F (centres unmarked) [IND_CC-314, 5-Chloro-N-[2,2-dimethyl-6-(9-pyridin-4-yl-3,9-diazaspiro[5.5]undecane-3-carbonyl)-1,3-dihydro-inden-1-yl]-2-(trifluoromethyl)-benzamide] | 80% |
| O=C(NC1CCc2ccc(C(=O)N3CCC4(CCN(CCCc5ccc(F)cc5)CC4)C3)cc21)c1cc(C(F)(F)F)ccc1Cl (centres unmarked) [IND_CC-692, 2-Chloro-N-[6-[8-[3-(4-fluorophenyl)-propyl]-2,8-diazaspiro[4.5]decane-2-carbonyl]-2,3-dihydro-1H-inden-1-yl]-5-(trifluoromethyl)-benzamide] | 99% |
| O=C(NC1CCc2ccc(C(=O)N3CCC4(CCN(Cc5c(F)cccc5F)CC4)C3)cc21)c1cc(C(F)(F)F)ccc1Cl (centres unmarked) [IND_CC-632, 2-Chloro-N-[6-[8-[(2,6-difluoro-phenyl)-methyl]-2,8-diazaspiro[4.5]decane-2-carbonyl]-2,3-dihydro-1H-inden-1-yl]-5-(trifluoromethyl)-benzamide] | 64% |
| O=C(NC1CCc2ccc(C(=O)N3CCC4(CCN(Cc5cc(F)ccc5F)CC4)C3)cc21)c1cc(C(F)(F)F)ccc1Cl (centres unmarked) [IND_CC-634, 2-Chloro-N-[6-[8-[(2,5-difluoro-phenyl)-methyl]-2,8-diazaspiro[4.5]decane-2-carbonyl]-2,3-dihydro-1H-inden-1-yl]-5-(trifluoromethyl)-benzamide] | 75% |
| COc1cc(C)c(C(=O)NC2CCc3ccc(C(=O)N4CCC5(CCN(c6ccncc6)CC5)C4)cc32)c(C)c1 (centres unmarked) [Ind_CC-088, 4-methoxy-2,6-dimethyl-N-[6-(8-pyridin-4-yl-2,8-diazaspiro[4.5]decane-2-carbonyl)-2,3-dihydro-1H-inden-1-yl]-benzamide] | 93% |
| O=C(NC1CCc2ccc(C(=O)N3CCC4(CCN(c5ccncc5)CC4)C3)cc21)C1CCCC1 (centres unmarked) [IND_CC-394, N-[6-(8-Pyridin-4-yl-2,8-diazaspiro[4.5]decane-2-carbonyl)-2,3-dihydro-1H-inden-1-yl]-cyclopentanecarboxylic acid amide] | 103% |
| O=C(NC1CCc2ccc(C(=O)N3CCC4(CCN(CCCc5cccc(F)c5)CC4)C3)cc21)c1cc(C(F)(F)F)ccc1Cl (centres unmarked) [IND_CC-691, 2-Chloro-N-[6-[8-[3-(3-fluorophenyl)-propyl]-2,8-diazaspiro[4.5]decane-2-carbonyl]-2,3-dihydro-1H-inden-1-yl]-5-(trifluoromethyl)-benzamide] | 95% |
| Cc1c(CN2CCC3(CC2)CCN(C(=O)c2ccc4c(c2)C(NC(=O)c2c(F)cccc2Cl)CC4)CC3)cnn1C (centres unmarked) [IND_CC-798, 2-Chloro-N-[6-[9-[(1,5-dimethyl-1H-pyrazol-4-yl)-methyl]-3,9-diazaspiro-[5.5]undecane-3-carbonyl]-2,3-dihydro-1H-inden-1-yl]-6-fluoro-benzamide] | 71% |
| O=C(NC1CCCCC1)N1CCC2(CC1)CCN(C(=O)c1ccc3c(c1)C(N(C(=O)c1ccccc1Cl)C1CC1)CC3)C2 (centres unmarked) [IND_CC-717, 2-[3-[(2-Chloro-benzoyl)-cyclopropyl-amino]-2,3-dihydro-1H-indene-5-carbonyl]-N-cyclohexyl-2,8-diazaspiro[4.5]decane-8-carboxylic acid amide] | 72% |
| Cn1nnc2cc(CN3CCC4(CC3)CCN(C(=O)c3ccc5c(c3)C(NC(=O)c3cccc(Cl)c3Cl)CC5)C4)ccc21 (centres unmarked) [IND_CC-746, 2,3-Dichloro-N-[6-[8-[(1-methyl-1H-benzotriazol-5-yl)-methyl]-2,8-diazaspiro[4.5]decane-2-carbonyl]-2,3-dihydro-1H-inden-1-yl]-benzamide] | 78% |
| Cc1cccc(Cl)c1C(=O)NC1CCc2ccc(C(=O)N3CCC4(CCN(CCCc5cccc(F)c5)CC4)C3)cc21 (centres unmarked) [IND_CC-770, 2-Chloro-N-[6-[8-[3-(3-fluorophenyl)-propyl]-2,8-diazaspiro[4.5]decane-2-carbonyl]-2,3-dihydro-1H-inden-1-yl]-6-methyl-benzamide] | 109% |
| CN(C(=O)C1CC1)C1CCc2ccc(C(=O)N3CCC4(CC3)CCN(c3ccncc3)CC4)cc21 (centres unmarked) [IND_CC-369, N-Methyl-N-[6-(9-pyridin-4-yl-3,9-diazaspiro[5.5]undecane-3-carbonyl)-2,3-dihydro-1H-inden-1-yl]-cyclopropanecarboxylic acid amide] | 74% |
| CN(C)c1ncc(CN2CCC3(CC2)CCN(C(=O)c2ccc4c(c2)C(NC(=O)c2cccc(Cl)c2Cl)CC4)C3)cn1 (centres unmarked) [IND_CC-743, 2,3-Dichloro-N-[6-[8-[(2-dimethylamino-pyrimidin-5-yl)-methyl]-2,8-diazaspiro[4.5]decane-2-carbonyl]-2,3-dihydro-1H-inden-1-yl]-benzamide] | 80% |

Next, values leading:

| inhibition at 10 µM | Compound |
| --- | --- |
| 54% | CC(C)CN1CCC2(CC1)CCN(C(=O)c1ccc3c(c1)C(NC(=O)c1cc(Cl)ccc1F)CC3)CC2 (centres unmarked) [IND_CC-680, 5-Chloro-2-fluoro-N-[6-[9-(2-methyl-propyl)-3,9-diazaspiro[5.5]undecane-3-carbonyl]-2,3-dihydro-1H-inden-1-yl]-benzamide] |
| 105% | Cc1cccc(Cl)c1C(=O)NC1CCc2ccc(C(=O)N3CCC4(CCN(Cc5ccc6nccnc6c5)CC4)C3)cc21 (centres unmarked) [IND_CC-765, 2-Chloro-6-methyl-N-[6-[8-(quinoxalin-6-yl-methyl)-2,8-diazaspiro[4.5]-decane-2-carbonyl]-2,3-dihydro-1H-inden-1-yl]-benzamide] |
| 105% | Cc1ccccc1C(=O)N(C)C1CCc2ccc(C(=O)N3CCC4(CC3)CCN(c3ccncc3)CC4)cc21 (centres unmarked) [IND_CC-345, N,2-Dimethyl-N-[6-(9-pyridin-4-yl-3,9-diazaspiro[5.5]undecane-3-carbonyl)-2,3-dihydro-1H-inden-1-yl]-benzamide] |
| 87% | O=C(NC1CCc2ccc(C(=O)N3CCC4(CCN(Cc5ccc6ncccc6c5)CC4)CC3)cc21)c1cccc(Cl)c1Cl (centres unmarked) [IND_CC-754, 2,3-Dichloro-N-[6-[9-(quinolin-6-yl-methyl)-3,9-diazaspiro[5.5]undecane-3-carbonyl]-2,3-dihydro-1H-inden-1-yl]-benzamide] |
| 92% | N#Cc1ccccc1CN1CCC2(CC1)CCN(C(=O)c1ccc3c(c1)C(NC(=O)c1c(F)cccc1Cl)CC3)CC2 (centres unmarked) [IND_CC-801, 2-Chloro-N-[6-[9-[(2-cyano-phenyl)-methyl]-3,9-diazaspiro[5.5]undecane-3-carbonyl]-2,3-dihydro-1H-inden-1-yl]-6-fluoro-benzamide] |
| 90% | CC1(C)Cc2ccc(C(=O)N3CCC4(CC3)CCN(c3ccncc3)CC4)cc2C1NS(=O)(=O)c1ccc(Cl)cc1Cl (centres unmarked) [IND_CC-334, 2,4-Dichloro-N-[2,2-dimethyl-6-(9-pyridin-4-yl-3,9-diazaspiro[5.5]undecane-3-carbonyl)-1,3-dihydro-inden-1-yl]-benzenesulfonic acid amide] |
| 62% | CN(C(=O)c1ccccc1Cl)C1CCc2ccc(C(=O)N3CCC4(CCN(Cc5c(F)cccc5Cl)CC4)C3)cc21 (centres unmarked) [IND_CC-558, 2-Chloro-N-[6-[8-[(2-chloro-6-fluoro-phenyl)-methyl]-2,8-diazaspiro[4.5]-decane-2-carbonyl]-2,3-dihydro-1H-inden-1-yl]-N-methyl-benzamide] |
| 66% | O=C(c1ccc2c(c1)C(N(C(=O)c1ccccc1Cl)C1CC1)CC2)N1CCC2(CCN(C(=O)c3ccc(F)cc3Cl)CC2)C1 (centres unmarked) [IND_CC-605, 2-Chloro-N-[6-[8-(2-chloro-4-fluoro-benzoyl)-2,8-diazaspiro[4.5]decane-2-carbonyl]-2,3-dihydro-1H-inden-1-yl]-N-cyclopropyl-benzamide] |
| 94% | CC1(C)CC(NS(=O)(=O)c2ccc(C(F)(F)F)cc2Cl)c2cc(C(=O)N3CCC4(CC3)CCN(c3ccncc3)CC4)ccc21 (centres unmarked) [IND_CC-331, 2-Chloro-N-[3,3-dimethyl-6-(3-pyridin-4-yl-3,9-diazaspiro[5.5]undecane-9-carbonyl)-1,2-dihydro-inden-1-yl]-4-(trifluoromethyl)-benzenesulfonic acid amide] |

Same assay, conditions: rat B1R

| Compound | % Inhibition (rat B1R) at 10 μM |
| --- | --- |
| 2-Chloro-N-[6-[8-[(2-chloro-4-fluoro-phenyl)-methyl]-2,8-diazaspiro-[4.5]decane-2-carbonyl]-2,3-dihydro-1H-inden-1-yl]-6-fluoro-benzamide [IND_CC-741] | 100% |
| N,3-Dimethyl-N-[6-(9-pyridin-4-yl-3,9-diazaspiro[5.5]undecane-3-carbonyl)-2,3-dihydro-1H-inden-1-yl]-butyramide [IND_CC-408] | 101% |
